From US5362634A, “Process for producing A83543 compounds” (DowElanco, priority 1991, dated 1994)
Where two headings read alike, the source gives them in different places.

How the values were obtained:
[1] = system: imported cabbage worm; assay: Field trial, imported cabbage worm on sprouting broccoli; type: in vivo
Experimental: (§1) A83543A was evaluated in field trials.

[2] = system: cabbage looper; assay: Field trial, cabbage looper on sprouting broccoli; type: in vivo
Experimental: as §1

[3] = system: CBW (cotton bollworm) ova; assay: Topical treatment of CBW eggs (ova); type: in vivo, Heliothis zea; conditions: 144 h, 6 days
Experimental: (§2) Each test compound was formulated by dissolving the compound in an acetone/alcohol (1:1) mixture containing 23 g of "Toximul R" (sulfonate/nonionic emulsifier blend) and 13 g of "Toximul S" (sulfonate/nonionic emulsifier blend) per liter. These mixtures were then diluted with water to give the indicated concentrations.
(§3) Additional insects were evaluated using similar formulations and evaluation procedures, with the exceptions noted.
(§4) After standard exposure periods, percent mortality was evaluated. The following abbreviations are used:
(§5) ^b Mean of two replicates tested
^e Eggs topically treated with A83543A and held until control eggs

[4] = system: adult stable fly; assay: Insecticidal assay in blood of sheep challenged with Haemonchus contortus, adult stable fly; type: in vivo; design: mortality: dose or concentration left out as unconfirmed; conditions: Stomoxys calcitrans, read-out: Percent Insecticide Mortality; for mortality at 1 mg/kg: iv, 1 × 1 mg/kg IV
Experimental: (§6) Blood is drawn from the guinea pigs at 30 minutes except as noted, and the samples of blood are centrifuged. Dental wicks are saturated with the blood serum, and then exposed in Petri dishes to adult stable flies; blow fly larvae are exposed in test tubes. After 24 and 48 hours, the insects are examined, and the number of dead are counted. The results of the tests are recorded as the percent of the insects which are killed.
Tests are carried out in sheep using the test method described supra in the Guinea Pig Test description. […]
^b Amount (mg/kg) times number of doses administered
^c Times postadministration at which blood is drawn

[5] = system: neonate CBW (cotton bollworm) larvae; assay: Topical test against neonate CBW larvae; type: in vivo, Heliothis zea; conditions: 24 h, 1 day
Experimental: as §2, §3, §4, §5
^c Treated with 1 mL of formulated A83543A

[6] = system: Spodoptera eridania; assay: Outdoor pot tests against Southern armyworm; type: in vivo
Excerpt: Table XV compares the effectiveness and persistence of A83543A treatment with that of methomyl in outdoor pot tests against Southern armyworm.

[7] = system: adult stable fly (ASF); assay: Sheep systemic test, adult stable fly; type: in vivo; conditions: Stomoxys calcitrans, 24 h
Experimental: as §6
(§7) Tests are carried out in sheep using the test method described supra in the Guinea Pig Test description. Test compound is administered by intraperitoneal or intravenous injection or intraruminally; blood samples are drawn at 24 hours in these tests.

[8] = system: adult stable fly (ASF); assay: In vitro efficacy, exposure of ASF to chemically added serum samples; conditions: Stomoxys calcitrans, read-out: Percent insect mortality
Excerpt: ^1 Percent insect mortality following 24 to 48 hrs. in vitro exposure
to chemically added serum samples

[9] = system: blow fly larvae (LBF); assay: Sheep systemic test, blow fly larvae; type: in vivo
Experimental: as §6, §7

[10] = system: mixture of soybean loopers (75%) and fall armyworm (25%); assay: Field trial, soybean loopers and fall armyworm on soybean; type: in vivo
Experimental: as §1

[11] = 0 h, Day 0, A, 24-hour exposure
[12] = 0 h, Day 0, A, 48-hour exposure
[13] = 24 h, Day 1, A, 24-hour exposure
[14] = 24 h, Day 1, A, 48-hour exposure
[15] = 48 h, Day 2, A, 24-hour exposure
[16] = 72 h, Day 3, A, 24-hour exposure
[17] = 72 h, Day 3, A, 48-hour exposure
[18] = 120 h, Day 5, A, 48-hour exposure

For `CC[C@H]1CCC[C@H](O[C@H]2CC[C@H](N(C)C)[C@@H](C)O2)[C@@H](C)C(=O)C2=C[C@@H]3[C@@H](C=C[C@@H]4C[C@@H](O[C@@H]5O[C@@H](C)[C@H](OC)[C@@H](OC)[C@H]5OC)C[C@@H]34)[C@@H]2CC(=O)O1` [A83543A], the “activity in field trials” value [1] was “showed activity”, the “activity in field trials” value [2] was “showed activity” and the inhibition at 10 ppm ([3]; 10.00 ppm) was 0%. The inhibition at 50 ppm ([3]; 50.00 ppm) was 0%, the inhibition at 100 ppm ([3]; 100.00 ppm) was 30% and the mortality [4, 11] was 0%. The mortality [4, 12] was 0%, the mortality ([4]; 5 h, A, 24-hour exposure) was 10% and the mortality ([4]; 24 h, 35 min, A, 24-hour exposure) was 10%. It also gave a mortality ([4]; 24 h, 5 hr, A, 24-hour exposure) of 10%, a mortality ([4]; 24 h, Day 0, A, 24-hour exposure) of 0% and a mortality [4, 13] of 10%. It also gave a mortality at 50 mg/kg [4, 13] of 0%, a mortality [4, 14] of 90% and a mortality at 50 mg/kg [4, 14] of 60%. It also gave a mortality at 2 mg/kg ([4]; 48 h, 25 × 2 mg/kg IR, Day 2, A, 24-hour exposure) of 20%, a mortality [4, 15] of 20% and a mortality [4, 16] of 0%. The mortality [4, 17] was 70%, the mortality [4, 18] was 30% and the mortality at 50 mg/kg ([4]; ip, 0 h, Day 0, A, 48-hour exposure) was 20%. For the same compound, the mortality at 50 mg/kg ([4]; ip, 35 min, A, 48-hour exposure) was 0%, the mortality at 50 mg/kg ([4]; ip, 5 h, A, 48-hour exposure) was 10% and the mortality at 50 mg/kg ([4]; ip, 24 h, 35 min, A, 24-hour exposure) was 0%. It also gave a mortality at 50 mg/kg ([4]; ip, 24 h, 5 hr, A, 24-hour exposure) of 0%, a mortality at 50 mg/kg ([4]; ip, 24 h, Day 0, A, 24-hour exposure) of 0% and a mortality at 50 mg/kg ([4]; ip, 24 h, Day 1, A, 24-hour exposure) of 0%. For the same compound, the mortality at 50 mg/kg ([4]; ip, 24 h, Day 1, A, 48-hour exposure) was 0%, the mortality at 50 mg/kg ([4]; ip, 24 h, Day 2, A, 24-hour exposure) was 10% and the mortality at 50 mg/kg ([4]; ip, 24 h, Day 3, A, 24-hour exposure) was 0%. It also gave a mortality at 50 mg/kg ([4]; ip, 24 h, Day 4, A, 24-hour exposure) of 10%, a mortality at 50 mg/kg ([4]; ip, 24 h, Day 5, A, 24-hour exposure) of 0% and a mortality at 50 mg/kg ([4]; ip, 48 h, Day 2, A, 48-hour exposure) of 30%. The mortality at 50 mg/kg ([4]; ip, 72 h, Day 3, A, 48-hour exposure) was 10%, the mortality at 50 mg/kg ([4]; ip, 96 h, Day 4, A, 48-hour exposure) was 20% and the mortality at 50 mg/kg ([4]; ip, 120 h, Day 5, A, 48-hour exposure) was 0%. The mortality at 1 mg/kg [4, 11] was 0%, the mortality at 1 mg/kg [4, 12] was 0% and the mortality at 1 mg/kg ([4]; 35 min, 35 min, A, 24-hour exposure) was 10%. The mortality at 1 mg/kg ([4]; 35 min, 35 min, A, 48-hour exposure) was 10%, the mortality at 1 mg/kg ([4]; 5 h, 5 hr, A, 24-hour exposure) was 0% and the mortality at 1 mg/kg ([4]; 5 h, 5 hr, A, 48-hour exposure) was 20%. It also gave a mortality at 1 mg/kg [4, 13] of 0%, a mortality at 1 mg/kg [4, 14] of 0% and a mortality at 1 mg/kg [4, 15] of 0%. It also gave a mortality at 1 mg/kg ([4]; 48 h, Day 2, A, 48-hour exposure) of 0%, a mortality at 1 mg/kg [4, 16] of 0% and a mortality at 1 mg/kg [4, 17] of 0%. The mortality at 1 mg/kg ([4]; 96 h, Day 4, A, 24-hour exposure) was 0%, the mortality at 1 mg/kg ([4]; 96 h, Day 4, A, 48-hour exposure) was 0% and the mortality at 1 mg/kg ([4]; 120 h, Day 5, A, 24-hour exposure) was 0%. The mortality at 1 mg/kg [4, 18] was 0%, the inhibition at 0.5 ppm ([5]; 0.50 ppm, second series) was 10% and the inhibition at 1 ppm ([5]; first series, mean of two replicates) was 20%. It also gave an inhibition at 1 ppm ([5]; second series) of 40%, an inhibition at 5 ppm ([5]; first series) of 100% and an inhibition at 5 ppm ([5]; second series) of 80%. It also gave an inhibition at 10 ppm ([5]; first series) of 100%, an inhibition at 10 ppm ([5]; second series) of 100% and an inhibition at 50 ppm ([5]; first series) of 100%. It also gave an inhibition at 50 ppm ([5]; second series) of 100%, an inhibition at 100 ppm ([5]; first series) of 100% and an inhibition at 100 ppm ([5]; second series) of 70%. It also gave a mortality at 63 ppm ([6]; 24 h, 1 day after treatment) of 100%, a mortality at 125 ppm ([6]; 24 h, 1 day after treatment) of 100% and a mortality at 250 ppm ([6]; 24 h, 1 day after treatment) of 100%. For the same compound, the mortality at 500 ppm ([6]; 24 h, 1 day after treatment) was 100%, the mortality at 63 ppm ([6]; 120 h, 5 days after treatment) was 88% and the mortality at 125 ppm ([6]; 120 h, 5 days after treatment) was 88%. The mortality at 250 ppm ([6]; 120 h, 5 days after treatment) was 95%, the mortality at 500 ppm ([6]; 120 h, 5 days after treatment) was 100% and the mortality at 63 ppm ([6]; 168 h, 7 days after treatment) was 90%. It also gave a mortality at 125 ppm ([6]; 168 h, 7 days after treatment) of 95%, a mortality at 250 ppm ([6]; 168 h, 7 days after treatment) of 100% and a mortality at 500 ppm ([6]; 168 h, 7 days after treatment) of 100%. The mortality at 63 ppm ([6]; 336 h, 14 days after treatment) was 5%, the mortality at 125 ppm ([6]; 336 h, 14 days after treatment) was 90% and the mortality at 250 ppm ([6]; 336 h, 14 days after treatment) was 100%. The mortality at 500 ppm ([6]; 336 h, 14 days after treatment) was 100%, the mortality at 1 mg/kg ([7]; 1.0 mg/kg IV) was 10% and the mortality at 10 mg/kg ([7]; 10 mg/kg IP) was 0%. It also gave a mortality at 10 mg/kg ([7]; 10 mg/kg IR) of 0%, a mortality at 30 mg/kg ([7]; 30 mg/kg IP) of 0% and a mortality at 30 mg/kg ([7]; 30 mg/kg IR) of 30%. The mortality at 50 mg/kg ([7]; 50 mg/kg IR) was 70%, the mortality at 25 mg/kg ([7]; 2 × 25 mg/kg IR) was 90% and the mortality at 0.312 ppm ([8]; 24 hr) was 0%. For the same compound, the mortality at 0.312 ppm ([8]; 48 hr) was 50%, the mortality at 0.625 ppm ([8]; 24 hr) was 0% and the mortality at 0.625 ppm ([8]; 48 hr) was 70%. The mortality at 1.25 ppm ([8]; 24 hr) was 20%, the mortality at 1.25 ppm ([8]; 48 hr) was 100% and the mortality at 2.5 ppm ([8]; 24 hr) was 30%. The mortality at 2.5 ppm ([8]; 48 hr) was 100%, the mortality at 5 ppm ([8]; 24 hr) was 50% and the mortality at 5 ppm ([8]; 48 hr) was 100%. The mortality at 10 ppm ([8]; 24 hr) was 80%, the mortality at 10 ppm ([8]; 48 hr) was 100% and the “LBF activity (% mortality)” value ([9]; 1.0 mg/kg IV) was 25%. For the same compound, the “LBF activity (% mortality)” value ([9]; 10 mg/kg IP, 1440 min) was 0%, the “LBF activity (% mortality)” value ([9]; 10 mg/kg IR, 1440 min) was 0% and the “LBF activity (% mortality)” value ([9]; 30 mg/kg IP, 1440 min) was 80%. The “LBF activity (% mortality)” value ([9]; 30 mg/kg IR, 1440 min) was 100%, the “LBF activity (% mortality)” value ([9]; 50 mg/kg IP, 1440 min) was 20% and the “LBF activity (% mortality)” value ([9]; 50 mg/kg IR, 1440 min) was 100%. For the same compound, the “LBF activity (% mortality)” value ([9]; 2 × 25 mg/kg IR, 1440 min) was 100% and the “activity in field trials” value [10] was “showed activity”.
